Results: patent US8389739B1, “Modulators of retinoid-related orphan receptor gamma” (Orphagen Pharmaceuticals, priority 2006, dated 2013)

How the values were obtained:
[1] = tested on: splenic TH-17 and TH1 cells; test: Splenic TH-17 and TH1 cells in MOG-immunized C57BL/6 mice; assay type: in vivo; details: 100 mg/kg oral gavage for 9 days
Procedure: C57BL/6 female mice were immunized with 150 μg […] on study day 0. Mice were treated with either OR-1050 at 100 mg/kg or with vehicle (HRC-6) by oral gavage for 9 days starting day O, Splenocytes were collected at Day 9 and stained for TH-17 (CD4^+CD8^−IL17^+) and TH1 (CD4^+CD8^−IFNγ^+) cells. Statistics were performed by Student's t-test.

[2] = tested on: thymocytes; test: Thymus weight and thymocyte subpopulations after oral dosing in C57BL/6 mice; assay type: in vivo; details: mouse, in vivo, 100 mg/kg
Procedure: In addition, the total number and the fraction of the major thymocyte subpopulations including CD4^+CD8^+ (DP), CD4^+CD8^- (SP4^+) and CD4^-CD8^+ (SP8^+) were measured by cell surface staining followed by FACS analysis. […] The volume of cells was adjusted to 8 mls. Debris from the thymus was allowed to settle, and a 200 μl aliquot of cells was incubated with fluorescent antibodies to CD4 and CD8 for 15 minutes at room temperature. […] Before analytical flow cytometry was carried out (FACS Calibur, Becton Dickinson), Caltag counting beads (from Invitrogen) were added to allow absolute quantitation of cell number. Thymus subpopulations were determined after gating for live cells. […] Dexamethasone reproducibly induces rapid apoptosis of DP thymocytes and reduction of thymic mass ([…], Drupt et al. 2000; Zubkova, Mostowski et al. 2005).

[3] = tested on: EAE; test: EAE model, SJL/J mice immunized with PLP139-151, osmotic pump; assay type: in vivo
[4] = tested on: IL-17 release from CD4+ naïve murine T cells; test: IL-17 release into culture medium during TH-17 differentiation (ELISA); assay type: cell-based, mouse; details: 3 μM, in the presence or absence of 3 μM OR-12872, day 4 (FIG. 10)
Procedure: FIG. 10. IL-17 release into culture medium was measured four days after induction of TH-17 differentiation in CD4^+ naïve murine T cells, following the methods of FIG. 7. Each antagonist (OR-885, OR-1050, OR-13571, and OR-2161) was incubated in the cultures at 3 μM, in the presence or absence of OR-12872, also at 3 μM. On day 4, culture supernatants were saved and IL-17 measured by ELISA.
Purified CD4^+CD62L^+ T cells were plated in 24-well plates with 2−4×10^5 cells in 700 ul volume of RPMI 1640 media containing 10% heat-inactivated FCS, 100 IU penicillin, 100 μg/ml streptomycin, 1× non-essential amino acids, 1 mM pyruvate, 2 mM glutamine, and 50 μM […] (Veldhoen, Hocking et al. 2006). T cells were stimulated with exogenous cytokines and anti-CD3/anti-CD28 conjugated Dynabeads (Dynal Biotech, Oslo) at a 1:1 ratio of beads to cells. Exogenous cytokines used were: 4 ng/ml TGF-β, 20 ng/ml of IL-6, or 10 ng/ml IL-12. RORγ agonist and antagonist ligands, dissolved in DMSO, were added directly to cell cultures, to a final concentration of 0.01%. Cytokines and RORγ ligands were added immediately after cell plating.
ELISA kits for mouse IL-17 and human IL-17 were from eBioscience (San Diego, Calif.). ELISA assays were performed following the manufacturer's protocol. Certain samples were diluted 20-fold to avoid maximization of enzymatic signals. […]

| SMILES | change in TH1 cells [1] | inhibition of splenic TH-17 cells ([1]; HRC-6, p<0.05, n=8-10) | Frequency of DP (% of total cells) [2] | Total cells per spleen (×10^−6) DP [2] | Total cells per spleen (×10^−6) SP4 [2] | Total cells per spleen (×10^−6) SP8 [2] | paralytic severity, in words ([3]; FIG. 11D) | day of onset, in words ([3]; FIG. 11E) | area under the severity curve (mean±sem) ([3]; estimated 30 mg/kg daily, vehicle 14.5±1.6, p<0.01) | IL-17 release during TH-17 differentiation [4] |
| --- | --- | --- | --- | --- | --- | --- | --- | --- | --- | --- |
| CCN(c1ccc(C(O)(C(F)(F)F)C(F)(F)F)cc1)S(=O)(=O)c1ccc([N+](=O)[O-])cc1 [OR-1050, N-Ethyl-4-nitro-N-[4-(2,2,2-trifluoro-1-hydroxy-1-trifluoromethyl-ethyl)-phenyl]-benzenesulfonamide] | no change in TH1 cells | 29% | 56.7 ± 3.1% | 61.5 ×10^−6 | 8.1 ×10^−6 | 2.5 ×10^−6 | reduced paralytic severity | significantly delayed | 5.3±2.7 | – |
| COC(C)CCC(C)C1CCC2C3CC(O)C4CC(O)CCC4(C)C3CCC12C (stereo not shown) [OR-12872, 17-(4-Methoxy-1-methyl-pentyl)-10,13-dimethyl-hexadecahydro-cyclopenta[a]phenanthrene-3,6-diol] | – | – | – | – | – | – | – | – | – | reverses the effect of each of the antagonists |
